Counter-ions that a name gives are not always drawn. Like-named read-outs stand apart in the source and are kept apart here. Starred links: 1 amine or outer side, 2 acyl side, 3 side chain; linkers in the order of their positions; H or OH if unused. Positions of bridges follow the written chain, without caps; N, C: chain ends. Non-standard residues stand in square brackets, D forms with d. Residues, ends and D or L forms follow the SMILES beside them. Trp(5-OH) = N[C@@H](Cc1c[nH]c2ccc(O)cc12)C(=O)O; NMePhe(4-F) = CN[C@@H](Cc1ccc(F)cc1)C(=O)O; Lys(N3) = [N-]=[N+]=NCCCC[C@H](N)C(=O)O; NMehPhe = CN[C@@H](CCc1ccccc1)C(=O)O; Glutaryl = O=C(CCCC(=O)[*:2])[*:1]; NMeAhp(2) = CCCCC[C@H](NC)C(=O)O; Aad = N[C@@H](CCCC(=O)O)C(=O)O; Gly(cPr) = N[C@H](C(=O)O)C1CC1; NMehCys = CN[C@@H](CCS)C(=O)O; NMeK = CN[C@@H](CCCCN)C(=O)O; NMeDap = CN[C@@H](CN)C(=O)O; NMeC = CN[C@@H](CS)C(=O)O; NMeS = CN[C@@H](CO)C(=O)O
Tests used:
Format in all cases: binding
human HER2 (23-652) [1] = biological target: T1, human HER2 (23-652) (Homo sapiens, UniProt P04626); experiment: Surface plasmon resonance (SPR) for assessment of peptide affinity, human HER2; parameters: towards human HER2 (23-652) and mouse HER2 (23-653); made in house
How it was run: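 Binding kinetics fitted from sensorgrams with 280 s peptide association then 3000 s dissociation (30 uL/min), using HER2 (23-652) either directly immobilized (SA/CM5) or anti-Fc-captured; 3 M magnesium chloride used for regeneration.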

mouse HER2 (23-653) [2] = biological target: T2, mouse HER2 (23-653) (Mus musculus, UniProt P70424); experiment: Surface plasmon resonance (SPR) for assessment of peptide affinity, mouse HER2; parameters: mouse HER2 (23-653) using a Cy5 labeled peptide as a probe; made in house
Text: Each protein was immobilized either onto a SA sensorchip (Cytiva, BR-1005-31) or CM5 sensorchip (Cytiva, BR-1005-30) to a density of 800-2000 RU.

human HER2 (23-652) [3] = biological target: T1, human HER2 (23-652); experiment: TR-FRET competition assay for peptide potency, human HER2; parameters: towards human HER2 (23-652) and mouse HER2 (23-653); made in house; host or cells: mammalian cells
mouse HER2 (23-653) [4] = biological target: T2, mouse HER2 (23-653); experiment: TR-FRET competition assay for peptide potency, mouse HER2; parameters: mouse HER2 (23-653) using a Cy5 labeled peptide as a probe; made in house; host or cells: mammalian cells
[5] = SPR, human HER2 extracellular domain, 25° C., 1:1 binding model, read-out: huHER2-SPR-ONC KD
[6] = SPR, mouse HER2 extracellular domain, 25° C., 1:1 binding model, read-out: moHER2-SPR-ONC KD
[7] = TR-FRET competition with Cy5 labeled peptide probe, 0.1 nM mouse HER2, 24 h incubation, read-out: moHER2 TR-FRET IC50
[8] = huHER2 TR-FRET IC50, TR-FRET competition with Cy5 labeled peptide probe, 0.1 nM human HER2, 24 h incubation

SMILES	Kd (human HER2 (23-652) [1]; [5])	Kd (mouse HER2 (23-653) [2]; [6])	IC50 (human HER2 (23-652) [3]; read-out: huHER2 TR-FRET IC50)	IC50 (mouse HER2 (23-653) [4]; [7])	IC50 (mouse HER2 (23-653) [4]; value in parentheses (**): recalculated after further repetition, read-out: moHER2 TR-FRET IC50, recalculated value achieved after further repetition)	Kd (human HER2 (23-652) [1])	IC50 (human HER2 (23-652) [3]; [8])	Kd (mouse HER2 (23-653) [2])	IC50 (mouse HER2 (23-653) [4]; moHER2 TR-FRET IC50, TR-FRET competition with Cy5 labeled peptide probe, 0.1 nM mouse HER2, 24 h incubation)
CN1C(=O)[C@H](CO)NC(=O)[C@H](Cc2ccc(O)cc2)NC(=O)[C@@H](N)CSSC[C@@H](C(=O)N(C)[C@@H](Cc2ccc(F)cc2)C(N)=O)N(C)C(=O)[C@H](C2CC2)NC(=O)[C@H](Cc2c[nH]c3ccccc23)NC(=O)[C@H](Cc2c[nH]c3ccc(O)cc23)NC(=O)[C@H](CO)N(C)C(=O)[C@@H]1CCc1ccccc1 [Example A54, (4R,7S,10S,13S,16S,19S,22S,25S,28R)-10-((1H-indol-3-yl)methyl)-28-amino-N—((S)-1-amino-3-(4-fluorophenyl)-1-oxopropan-2-yl)-7-cyclopropyl-13-((5-hydroxy-1H-indol-3-yl)methyl)-25-(4-hydroxybenzyl)-16,22-bis(hydroxymethyl)-N,5,17,20-tetramethyl-6,9,12,15,18,21,24,27-octaoxo-19-phenethyl-1,2-dithia-5,8,11,14,17,20,23,26-octaazacyclononacosane-4-carboxamide TFA salt] (H-CYS[NMehPhe][NMeS][Trp(5-OH)]W[Gly(cPr)][NMeC][NMePhe(4-F)]-NH2; disulfide 1-9)		5310 nM		> 1000 nM		1710 nM	> 1000 nM		
CC(=O)NCCCC[C@H]1C(=O)N[C@@H](Cc2c[nH]c3ccc(O)cc23)C(=O)N[C@@H](Cc2c[nH]c3ccccc23)C(=O)N[C@@H](C2CC2)C(=O)N(C)[C@H](C(=O)N(C)[C@@H](Cc2ccc(F)cc2)C(N)=O)CCSSC[C@H](N)C(=O)N[C@@H](Cc2ccc(O)cc2)C(=O)N[C@@H](CO)C(=O)N(C)[C@@H](CCc2ccccc2)C(=O)N1C [Example A56, (5S,8S,11S,14S,17S,20S,23S,26S,29R)-11-((1H-indol-3-yl)methyl)-17-(4-acetamidobutyl)-29-amino-N-((S)-1-amino-3-(4-fluorophenyl)-1-oxopropan-2-yl)-8-cyclopropyl-14-((5-hydroxy-1/-indol-3-y1)methyl)-26-(4-hydroxybenzyl)-23-(hydroxymethyl)-N,6,18,21-tetramethyl-7,10,13,16,19,22,25,28-octaoxo-20-phenethyl-1,2-dithia-6,9,12,15,18,21,24,27-octaazacyclotriacontane-5-carboxamide TFA salt] (H-CYS[NMehPhe][NMeK](Ac)[Trp(5-OH)]W[Gly(cPr)][NMehCys][NMePhe(4-F)]-NH2; disulfide 1-9)	443 nM	413 nM	229 nM	755 nM					
CC(=O)N[C@H]1CCCC(=O)NC[C@@H](C(=O)N(C)[C@@H](Cc2ccc(F)cc2)C(=O)N[C@@H](CCCCNC(=O)CN2CCN(CC(=O)O)CCN(CC(=O)O)CCN(CC(=O)O)CC2)C(N)=O)N(C)C(=O)[C@H]([C@H](C)O)NC(=O)[C@H](Cc2c[nH]c3ccccc23)NC(=O)[C@H](Cc2c[nH]c3ccc(O)cc23)NC(=O)[C@H](CCCCNC(=O)CCO)N(C)C(=O)[C@H](CCc2ccccc2)N(C)C(=O)[C@H](CO)NC(=O)[C@H](Cc2ccc(O)cc2)NC1=O [Example B7]	0.4 nM	0.8 nM	0.4 nM	1.3 nM					
CN1C(=O)[C@H](CO)NC(=O)[C@H](Cc2ccc(O)cc2)NC(=O)[C@@H](N)CC(=O)NC[C@@H](C(=O)N(C)[C@@H](Cc2ccc(F)cc2)C(N)=O)N(C)C(=O)[C@H](C2CC2)NC(=O)[C@H](Cc2c[nH]c3ccccc23)NC(=O)[C@H](Cc2c[nH]c3ccc(O)cc23)NC(=O)[C@H](CO)N(C)C(=O)[C@@H]1CCc1ccccc1 [Example A37, (3S,6S,9S,12S,15S,18S,21S,24S,27S)-9-((1H-indol-3-yl)methyl)-27-amino-N-((S)-1-amino-3-(4-fluorophenyl)-1-oxopropan-2-yl)-6-cyclopropyl-12-((5-hydroxy-1H-indol-3-yl)methyl)-24-(4-hydroxybenzyl)-15,21-bis(hydroxymethyl)-N,4,16,19-tetramethyl-5,8,11,14,17,20,23,26,29-nonaoxo-18-phenethyl-1,4,7,10,13,16,19,22,25-nonaazacyclononacosane-3-carboxamide TFA salt] (H-DYS[NMehPhe][NMeS][Trp(5-OH)]W[Gly(cPr)][NMeDap][NMePhe(4-F)]-NH2; lactam 1-9)						452 nM	810 nM	213 nM	> 1000 nM
CC(=O)N[C@H]1CCC(=O)NCC[C@@H](C(=O)N(C)[C@@H](Cc2ccc(F)cc2)C(N)=O)N(C)C(=O)[C@H](C2CC2)NC(=O)[C@H](Cc2c[nH]c3ccccc23)NC(=O)[C@H](Cc2c[nH]c3ccc(O)cc23)NC(=O)[C@H](CO)N(C)C(=O)[C@H](CCc2ccccc2)N(C)C(=O)[C@H](CO)NC(=O)[C@H](Cc2ccc(O)cc2)NC1=O [Example A10, (2S,5S,8S,11S,14S,17S,20S,23S,30S)-17-((1H-indol-3-yl)methyl)-30-acetamido-N-((S)-1-amino-3-(4-fluorophenyl)-1-oxopropan-2-yl)-20-cyclopropyl-14-((5-hydroxy-1H-indol-3-yl)methyl)-2-(4-hydroxybenzyl)-5,11-bis(hydroxymethyl)-N,7,10,22-tetramethyl-3,6,9,12,15,18,21,27,31-nonaoxo-8-phenethyl-1,4,7,10,13,16,19,22,26-nonaazacyclohentriacontane-23-carboxamide]	482 nM	520 nM	536 nM	684 nM					

More lines, main results first:

Kd (human HER2 (23-652) [1]; [5])	Kd (mouse HER2 (23-653) [2]; [6])	IC50 (human HER2 (23-652) [3]; read-out: huHER2 TR-FRET IC50)	IC50 (mouse HER2 (23-653) [4]; [7])	IC50 (mouse HER2 (23-653) [4]; value in parentheses (**): recalculated after further repetition, read-out: moHER2 TR-FRET IC50, recalculated value achieved after further repetition)	SMILES	Kd (human HER2 (23-652) [1])	IC50 (human HER2 (23-652) [3]; [8])	Kd (mouse HER2 (23-653) [2])	IC50 (mouse HER2 (23-653) [4]; moHER2 TR-FRET IC50, TR-FRET competition with Cy5 labeled peptide probe, 0.1 nM mouse HER2, 24 h incubation)
0.1 nM	0.1 nM	0.1 nM	0.5 nM	0.3 nM	CC(=O)NCCCC[C@H]1C(=O)N[C@@H](Cc2c[nH]c3ccc(O)cc23)C(=O)N[C@@H](Cc2c[nH]c3ccccc23)C(=O)N[C@@H](C2CC2)C(=O)N(C)[C@H](C(=O)N(C)[C@@H](Cc2ccc(F)cc2)C(=O)N[C@@H](CCCCN=[N+]=[N-])C(N)=O)CNC(=O)CCC[C@H](NC(C)=O)C(=O)N[C@@H](Cc2ccc(O)cc2)C(=O)N[C@@H](CO)C(=O)N(C)[C@@H](CCc2ccccc2)C(=O)N1C [Example A74] (Ac-[Aad]YS[NMehPhe][NMeK](Ac)[Trp(5-OH)]W[Gly(cPr)][NMeDap][NMePhe(4-F)][Lys(N3)]-NH2; lactam 1-9)				
18 nM	23 nM	18 nM	40 nM		CC(=O)NCCCC[C@H]1C(=O)N[C@@H](Cc2c[nH]c3ccc(O)cc23)C(=O)N[C@@H](Cc2c[nH]c3ccccc23)C(=O)N[C@@H](C2CC2)C(=O)N(C)[C@H](C(=O)N(C)[C@@H](Cc2ccc(F)cc2)C(N)=O)CNC(=O)CCCC(=O)N[C@@H](Cc2ccc(O)cc2)C(=O)N[C@@H](CO)C(=O)N(C)[C@@H](CCc2ccccc2)C(=O)N1C [Example A7, (3S,6S,9S,12S,15S,18S,21S,24S)-9-((1H-indol-3-yl)methyl)-15-(4-acetamidobutyl)-N-((S)-1-amino-3-(4-fluorophenyl)-1-oxopropan-2-yl)-6-cyclopropyl-12-((5-hydroxy-1H-indol-3-yl)methyl)-24-(4-hydroxybenzyl)-21-(hydroxymethyl)-N,4,16,19-tetramethyl-5,8,11,14,17,20,23,26,30-nonaoxo-18-phenethyl-1,4,7,10,13,16,19,22,25-nonaazacyclotriacontane-3-carboxamide] (YS[NMehPhe][NMeK](Ac)[Trp(5-OH)]W[Gly(cPr)][NMeDap][NMePhe(4-F)]-NH2; linker N-8 via Glutaryl)				
24 nM	24 nM	27 nM	55 nM		CCCCC[C@@H](C(N)=O)N(C)C(=O)[C@@H]1CNC(=O)CCC[C@H](NC(C)=O)C(=O)N[C@@H](Cc2ccc(O)cc2)C(=O)N[C@@H](CO)C(=O)N(C)[C@@H](CCc2ccccc2)C(=O)N(C)[C@@H](CCCCNC(C)=O)C(=O)N[C@@H](Cc2c[nH]c3ccc(O)cc23)C(=O)N[C@@H](Cc2c[nH]c3ccccc23)C(=O)N[C@@H](C2CC2)C(=O)N1C [Example A15, (3S,6S,9S,12S,15S,18S,21S,24S,27S)-9-((1H-indol-3-yl)methyl)-27-acetamido-15-(4-acetamidobutyl)-N-((S)-1-amino-1-oxoheptan-2-yl)-6-cyclopropyl-12-((5-hydroxy-1H-indol-3-yl)methyl)-24-(4-hydroxybenzyl)-21-(hydroxymethyl)-N,4,16,19-tetramethyl-5,8,11,14,17,20,23,26,31-nonaoxo-18-phenethyl-1,4,7,10,13,16,19,22,25-nonaazacyclohentriacontane-3-carboxamide] (Ac-[Aad]YS[NMehPhe][NMeK](Ac)[Trp(5-OH)]W[Gly(cPr)][NMeDap][NMeAhp(2)]-NH2; lactam 1-9)				

From US20250332300A1 (priority 2024, published 2025)
